According to patent publication US20260364068A1, “ANTIVIRAL USE OF HETEROARYL DERIVATIVE COMPOUND” (UIF (University Industry Foundation), Yonsei University, priority 2022, published 2026):
Where two headings read alike, the source gives them in different places.

Legend:
Assay type in all cases: cell-based
[1] = biological target: T1, human ANO6 (variant 5) (Homo sapiens, UniProt Q4KMQ2); test: Lact C2 assay (phosphatidylserine externalization scramblase function); settings: FRT cells expressing human ANO6, ionomycin 10 μM, read-out: % Inhibition (phosphatidylserine externalization inhibitory activity); for inhibition at 0.05 µM: 50 nM
T1 construct: expressed in transfected cells; host or cells: Fisher rat thyroid (FRT) cells
T1 sequence (Q4KMQ2 1-931 isoform Q4KMQ2-2): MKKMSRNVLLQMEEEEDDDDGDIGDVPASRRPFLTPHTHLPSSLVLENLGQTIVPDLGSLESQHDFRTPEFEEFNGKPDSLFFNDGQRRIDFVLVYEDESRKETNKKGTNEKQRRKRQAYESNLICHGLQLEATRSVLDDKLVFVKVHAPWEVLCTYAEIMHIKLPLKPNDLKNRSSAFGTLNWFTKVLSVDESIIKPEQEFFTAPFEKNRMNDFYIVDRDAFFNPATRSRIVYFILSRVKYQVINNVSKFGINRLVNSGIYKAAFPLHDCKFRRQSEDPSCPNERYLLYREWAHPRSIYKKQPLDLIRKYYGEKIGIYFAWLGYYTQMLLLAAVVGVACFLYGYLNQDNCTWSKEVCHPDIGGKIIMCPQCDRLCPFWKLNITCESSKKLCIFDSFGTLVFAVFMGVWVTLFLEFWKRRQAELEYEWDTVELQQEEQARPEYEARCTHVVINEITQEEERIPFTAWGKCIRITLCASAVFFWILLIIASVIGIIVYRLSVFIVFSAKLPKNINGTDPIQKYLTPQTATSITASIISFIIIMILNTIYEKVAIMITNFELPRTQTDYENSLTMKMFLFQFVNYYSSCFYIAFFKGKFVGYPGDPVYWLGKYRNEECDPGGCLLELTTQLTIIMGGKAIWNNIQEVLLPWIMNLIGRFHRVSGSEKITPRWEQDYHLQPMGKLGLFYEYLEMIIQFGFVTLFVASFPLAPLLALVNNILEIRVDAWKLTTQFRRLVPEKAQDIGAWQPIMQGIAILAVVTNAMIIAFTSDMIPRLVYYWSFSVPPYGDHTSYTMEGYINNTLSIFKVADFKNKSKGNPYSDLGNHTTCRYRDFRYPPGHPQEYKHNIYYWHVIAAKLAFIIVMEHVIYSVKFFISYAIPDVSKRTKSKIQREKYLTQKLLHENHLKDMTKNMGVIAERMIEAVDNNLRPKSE
Procedure: Experimental Example 2: Lact C2 Assay (Measuring Phosphatidylserine Externalization Scramblase Function)
Ionomycin (Alomonelab, cat. #I-700), DAPI (Sigma-Aldrich, cat. #D8417), paraformaldehyde (Biosesang, cat. #P2031), Lionheart FX automated fluorescence microscope (BioTek), Gen5™ software program (BioTek), and Image J analysis software program.
Fisher rat thyroid (FRT) cells expressing human ANO6 (variant 5; GenBank accession no. NP_001191732.1) were cultured at 37 °C under 5% CO2 conditions in DMEM/Ham's F-12 (1:1) medium supplemented with 10% Fetal Bovine Serum, 2 mM […], 100 units/mL penicillin, and 100 μg/mL streptomycin.
Fischer Rat Thyroid (FRT) cells (2×10^4 cells/well) expressing human ANO6 (variant 5) were cultured in a 96-well microplate for 24 hours. After the incubation, the cells were treated with compounds dissolved in DMSO to 1% v/v in each well at each concentration (50 nM, 100 nM, and 1 μM) and reacted for 10 minutes. Thereafter, each well was treated with ionomycin to a final concentration of 10 μM, allowed to react for 10 minutes, and then washed with 200 μL PBS. After washing, each well was treated with 50 μL of Lactadherin-C2 (Lact-C2)-GFP mixed in DMEM medium to a final concentration of 500 nM to stain phosphatidylserine, and cultured at 37 °C for 10 minutes. After completion of the reaction, the cells were washed with 200 μL PBS, and fixed with 4% paraformaldehyde for 5 minutes at room temperature. For morphological analysis, DAPI solution was added, and the cells were incubated for 15 minutes, followed by washing with PBS. The fluorescence intensity of Lact-C2-GFP bound to phosphatidylserine on the cell surface was measured using an automated fluorescence microscope. For quantitative analysis of the fluorescence intensity of Lact-C2-GFP, BioTek Gen5™ software and Image J analysis software programs were used.
Phosphatidylserine externalization inhibitory activity (%) by the compound was calculated through the following analysis method. Specifically, the background fluorescence value was subtracted from the measured Lact-C2-GFP fluorescence value, and the fluorescence value of the ionomycin non-treatment group and the ionomycin-treatment group in the same row where each test group was located in a 96-well microplate were calculated. In order to calculate the inhibitory activity (%) by the compound, the relative inhibitory activity was calculated by setting the compound and ionomycin non-treatment group to 100% inhibitory activity and the ionomycin alone treatment group to 0% inhibitory activity. To derive the results, the test was repeated three times, and the average values of the results were classified according to the range below and shown in Table 4 below (A: >60% inhibition, B: 30 to 60% inhibition, N/A: no test).

[2] = system: Severe Acute Respiratory Syndrome Coronavirus Type 2; test: microbe, parasite or virus in culture; settings: Calu-3, 10 uM, virus strain NCCP-43388, 48 hours, read-out: Virus replication inhibition efficacy
[3] = system: Severe Acute Respiratory Syndrome Coronavirus Type 2; test: microbe, parasite or virus in culture; settings: Vero, 10 uM, virus strain NCCP-43388, 48 hours, read-out: Virus replication inhibition efficacy
[4] = Cell viability measurement (MTS), Calu-3 cells; settings: human, 10 μM
In short: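 Calu-3 cells at about 20% confluency treated with compounds at 1, 3 and 10 μM (0.5% v/v DMSO) for 48 h at 37 °C. MTS added for 1 h; A490 minus A690 background, normalized to DMSO control as 100%; mean of 2–6 repeats, binned into viability ranges.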

CN(Cc1ccccc1)c1ccc2nc(-c3cccc(Nc4ccc(-c5cccnn5)cc4)c3)[nH]c2c1 [Example 280, N-benzyl-N-methyl-2-(3-((4-(pyridazin-3-yl)phenyl)amino)phenyl)-1H-benzo[d]imidazol-6-amine]
inhibition at 0.05 µM [1]: 30 to 60% | inhibition at 1 µM [1]: > 60% | inhibition at 10 µM [2]: > 60% | inhibition at 10 µM [3]: > 60%

Fc1cc2nc(-c3cccc(Nc4ncc(-c5cscn5)cn4)c3)[nH]c2cc1F [Example 332, N-(3-(5,6-difluoro-1H-benzo[d]imidazol-2-yl)phenyl)-5-(thiazol-4-yl)pyrimidin-2-amine]
viability at 48 h, 10 µM [4]: > 80% | inhibition at 0.05 µM [1]: > 60% | inhibition at 1 µM [1]: > 60%

FC(F)Oc1cc2[nH]c(-c3cccc(Nc4cnc(-c5ccccn5)cn4)c3)nc2cn1 [Example 336, N-(3-(6-(difluoromethoxy)-1H-imidazo[4,5-c]pyridin-2-yl)phenyl)-5-(pyridin-2-yl)pyrazin-2-amine]
viability at 48 h, 10 µM [4]: > 80% | inhibition at 0.05 µM [1]: > 60% | inhibition at 1 µM [1]: > 60%
